Assay results taken from patent US11203610B2, “2′3′ cyclic dinucleotides with phosphonate bond activating the sting adaptor protein” (INSTITUTE OF ORGANIC CHEMISTRY AND BIOCHEMISTRY ASCR, V.V.I., priority 2017, dated 2021).

Experiments:
AQ STING (G230A-R293Q) = molecular target: T1, AQ STING (G230A-R293Q) (Homo sapiens, UniProt Q86WV6, G230A/H232R/R293Q); assay: Differential Scanning Fluorimetry with AQ STING; type: binding; settings: thermal shift vs STING apoprotein; 150 μM CDN; 0.1 mg/ml truncated human AQ STING; SYPRO Orange; read-out: DSF ΔTm (° C.) AQ STING
T1 construct: truncated human WT STING or AQ STING (amino acid residues 140-343); 8xHis (N, cleaved yes); SUMO (N, cleaved yes); made in house; host or cells: E. coli Rosetta-gami B (DE3)
T1 sequence (Q86WV6 140-343 G230A/H232R/R293Q): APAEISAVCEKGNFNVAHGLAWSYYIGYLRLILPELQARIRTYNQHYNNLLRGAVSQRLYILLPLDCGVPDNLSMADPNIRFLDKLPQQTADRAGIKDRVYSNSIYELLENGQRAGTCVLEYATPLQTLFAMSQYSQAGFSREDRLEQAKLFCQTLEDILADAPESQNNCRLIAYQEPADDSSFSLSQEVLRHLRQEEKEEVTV

WT STING [1] = molecular target: T2, WT STING (Homo sapiens, UniProt Q86WV6, H232R); assay: Digitonin assay using 293T wtSTING-FL reporter cells; type: cell-based; settings: 293T wtSTING-FL cells; 30 minutes in Digitonin buffer, then 5 hours; ISRE firefly luciferase reporter; 8-point dose-response curve; read-out: Digitonin assay EC50 (μmol · l^−1) WT STING
Target sequence in this assay (Q86WV6 whole entry H232R, the tested form may be a part): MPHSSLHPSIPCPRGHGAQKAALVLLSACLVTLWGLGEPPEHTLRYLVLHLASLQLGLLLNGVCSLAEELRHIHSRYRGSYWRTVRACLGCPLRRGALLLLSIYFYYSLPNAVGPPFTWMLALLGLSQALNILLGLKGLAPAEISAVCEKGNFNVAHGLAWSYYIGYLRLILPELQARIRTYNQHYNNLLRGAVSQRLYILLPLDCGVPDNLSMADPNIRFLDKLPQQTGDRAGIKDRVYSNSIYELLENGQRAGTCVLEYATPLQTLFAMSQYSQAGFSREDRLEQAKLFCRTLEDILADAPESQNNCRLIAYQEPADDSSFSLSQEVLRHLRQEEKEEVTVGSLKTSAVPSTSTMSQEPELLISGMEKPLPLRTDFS

WT STING [2] = molecular target: T2, WT STING; assay: Differential Scanning Fluorimetry with WT STING; type: binding; design: truncated human WT STING or AQ STING (amino acid residues 140-343); 8xHis (N, cleaved yes); SUMO (N, cleaved yes); made in house; host or cells: E. coli Rosetta-gami B (DE3); settings: thermal shift vs STING apoprotein; 150 μM CDN; 0.1 mg/ml truncated human WT STING; SYPRO Orange; read-out: DSF ΔTm (° C.) WT STING
Target sequence in this assay (Q86WV6 140-343 H232R): as the sequence (Q86WV6 140-343 G230A/H232R/R293Q) above, with A91G, Q154R counted along it

| Compound | ΔTm at 150 µM (AQ STING (G230A-R293Q)) [°C] | EC50 (WT STING [1]) [nM] | ΔTm at 150 µM (WT STING [2]) [°C] |
| --- | --- | --- | --- |
| Nc1nc2c(ncn2[C@@H]2O[C@@H]3OCP(=O)(O)OC4C[C@H](n5cnc6c(N)nc(Cl)nc65)O[C@@H]4COP(=O)(O)OC2C3O)c(=O)[nH]1 (stereo partly drawn) [Compound 56, (1R,6R,8R,105,15R,17R,185)-8-(6-amino-2-chloro-9H-purin-9-yl)-17-(2-amino-6-oxo-6,9-dihydro-1H-purin-9-yl)-3,12,18-trihydroxy-2,4,7,11,14,16-hexaoxa-3λ^5,12λ^5-diphosphatricyclo[13.2.1.0^6,10]octadecane-3,12-dione] | 16.5 | 50 | 9.5 |
| Nc1nc2c(nnn2[C@@H]2O[C@@H]3OCP(=O)(O)O[C@H]4[C@@H](O)[C@H](n5cnc6c(N)ncnc65)O[C@@H]4COP(=O)(O)O[C@@H]2[C@@H]3O)c(=O)[nH]1 [Compound 57, (1R,6R,8R,9R,10S,15R,17R,18S)-17-{5-amino-7-oxo-3H,6H,7H-[1,2,3]triazolo[4,5-d]pyrimidin-3-yl}-8-(6-amino-9H-purin-9-yl)-3,9,12,18-tetrahydroxy-2,4,7,11,14,16-hexaoxa-3λ^5,12λ^5-diphosphatricyclo[13.2.1.0^6,10]octadecane-3,12-dione] | 22.2 | 20 | 14.8 |
| Nc1nc2c(nnn2[C@@H]2O[C@@H]3OCP(=O)(O)O[C@@H]4[C@@H](OCP(=O)(O)O[C@@H]2[C@@H]3O)O[C@@H](n2cnc3c(N)ncnc32)[C@@H]4O)c(=O)[nH]1 [Compound 61, (1R,6R,8R,9R,10S,15R,17R,18S)-17-{5-amino-7-oxo-3H,6H,7H-[1,2,3]triazolo[4,5-d]pyrimidin-3-yl}-8-(6-amino-9H-purin-9-yl)-3,9,12,18-tetrahydroxy-2,5,7,11,14,16-hexaoxa-3λ^5,12λ^5-diphosphatricyclo[13.2.1.0^6,10]octadecane-3,12-dione] | 17.6 | 27 | 10 |

More lines, in order of falling EC50 (WT STING [1]), values ahead:

| ΔTm at 150 µM (AQ STING (G230A-R293Q)) [°C] | EC50 (WT STING [1]) [nM] | ΔTm at 150 µM (WT STING [2]) [°C] | Compound |
| --- | --- | --- | --- |
| 10 | 1100 | 1.8 | Nc1ncnc2c1ncn2[C@@H]1O[C@@H]2OCP(=O)(O)O[C@@H]3[C@H](O)[C@@H](COP(=O)(O)O[C@H]2[C@H]1O)C[C@H]3n1cnc2c(=O)[nH]cnc21 [Compound 59, (1S,6R,8R,9R,10S,15R,17R,18R)-8-(6-amino-9H-purin-9-yl)-3,9,12,18-tetrahydroxy-17-(6-oxo-6,9-dihydro-1H-purin-9-yl)-2,5,7,11,13-pentaoxa-3λ^5,12λ^5-diphosphatricyclo[13.2.1.0^6,10]octadecane-3,12-dione] |
| 11.9 | 120 | 8.3 | NC(=O)c1ncn([C@@H]2O[C@@H]3COP(=O)(O)O[C@@H]4[C@H](O)[C@@H](OCP(=O)(O)O[C@H]3[C@H]2O)O[C@H]4n2cnc3c(=O)[nH]c(N)nc32)c1N [Compound 58, 5-amino-1-[(1R,6R,8R,9R,10S,15R,17R,18S)-17-(2-amino-6-oxo-6,9-dihydro-1H-purin-9-yl)-3,9,12,18-tetrahydroxy-3,12-dioxo-2,4,7,11,14,16-hexaoxa-3λ^5,12λ^5-diphosphatricyclo[13.2.1.0^6,10]octadecan-8-yl]-1H-imidazole-4-carboxamide] |
| 24 | 12 | 18.1 | Nc1nc2c(ncn2[C@@H]2O[C@@H]3OCP(=O)(O)O[C@H]4[C@@H](O)[C@H](n5cnc6c(N)ncnc65)O[C@@H]4COP(=O)(O)O[C@@H]2[C@@H]3F)c(=O)[nH]1 [Compound 60, (1S,6R,8R,9R,10S,15R,17R,18S)-17-(2-amino-6-oxo-6,9-dihydro-1H-purin-9-yl)-8-(6-amino-9H-purin-9-yl)-18-fluoro-3,9,12-trihydroxy-2,4,7,11,14,16-hexaoxa-3λ^5,12λ^5-diphosphatricyclo[13.2.1.0^6,10]octadecane-3,12-dione] |
